Values after ≈ are worked out from the molar mass of the structure shown.

This test deals with T1, mushroom tyrosinase.
T1 construct: gene PPO3; PDB 2Y9X used only for docking
The test can be described thus: L-dopachrome formation, absorbance at […] nm. As to conditions: L-DOPA as substrate (diphenolase); 0.1 M phosphate buffer, room temperature, 30 min. The test is classed as biochemical, Agaricus bisporus.

As to `O=C(/C=C/c1ccc(O)c(O)c1)O[C@H](Cc1ccc(O)c(O)c1)C(=O)O` [Rosmarinic acid], the “IC50 Values (mg/mL) / L-DOPA as the Substrate” value came to 3.62 ± 0.08 mg/mL (≈ 10 mM). The figure for `O=C(O)/C=C/c1ccccc1O` [o-Coumaric acid] is 4.19 ± 0.15 mg/mL (≈ 25.5 mM). The figure for `Oc1cc(O)c2c(c1)O[C@H](c1ccc(O)c(O)c1)[C@@H](O)C2` [Catechin] is 6.42 ± 0.45 mg/mL (≈ 22.1 mM). Turning to `OC[C@H]1O[C@@H](Oc2ccc(O)cc2)[C@H](O)[C@@H](O)[C@@H]1O` [Arbutin, reference compound], the “IC50 Values (mg/mL) / L-DOPA as the Substrate” value turned out to be 3.44 ± 0.04 mg/mL (≈ 12.6 mM). The figure for `COc1cc(/C=C/C(=O)O)ccc1O` [Ferulic acid] is 3.93 ± 0.09 mg/mL (≈ 20.2 mM).

(Values after publication PMC11642236, “Valorization of Hom Thong Banana Peel (Musa sp., AAA Group) as an Anti-Melanogenic Agent Through Inhibition of Pigmentary Genes and Molecular Docking Study” (International Journal of Molecular Sciences, 2024).)
